Converted amounts (≈) assume the structure as drawn. Where two headings read alike, the source gives them in different places.
Key:
[1] = tested on: Staphylococcus aureus FDA 209P; assay: Minimal inhibitory concentration (agar); format: cell-based; conditions: FDA209P, 48 h, nutrient agar, pH 7.0, 2 days, 37° C.
[2] = tested on: Bacillus subtilis PCI 219; assay: Minimal inhibitory concentration (agar); format: cell-based; conditions: pH 7.0, 2 days, 37° C.
Method: (§1) Medium N nutrient agar (pH 7.0, 2 days, 37° C.)
(§2) MIC Minimal inhibitory concentration
(§3) N nutrient agar (pH 7.0, 2 days, 37° C.)

[3] = tested on: Sarcina lutea PCI 1001; assay: Minimal inhibitory concentration (agar); format: cell-based; conditions: pH 7.0, 2 days, 37° C.
Method: as §1, §2, §3

[4] = tested on: Staphylococcus aureus FDA 209P (JC-1); assay: Minimal inhibitory concentration (agar); format: cell-based; conditions: FDA209P, 48 h, nutrient agar, pH 7.0, 2 days, 37° C.
Method: as §1, §2, §3

[5] = tested on: Salmonella typhimurium; assay: Minimal inhibitory concentration (agar); format: cell-based; conditions: Salmonella enterica, 48 h, pH 7.0, 2 days, 37° C.
[6] = tested on: Candida albicans; assay: Minimal inhibitory concentration (agar); format: cell-based; conditions: pH 6.4, 4 days, 27° C.
Method: (§4) P potato agar (pH 6.4, 4 days, 27° C.)
as §2
(§5) Minimal inhibitory concentration was assayed by agar dilution method
(§6) (potato agar, pH 6.4, 27° C., 4 days).

[7] = tested on: Trichophyton rubrum; assay: Minimal inhibitory concentration (agar); format: cell-based; conditions: pH 6.4, 4 days, 27° C.
Method: as §4, §2, §5, §6

[8] = tested on: Trichophyton schoenleini; assay: Minimal inhibitory concentration (agar); format: cell-based; conditions: pH 6.4, 4 days, 27° C.
Method: as §4, §2, §5, §6

[9] = tested on: Saccharomyces sake; assay: Minimal inhibitory concentration (agar); format: cell-based; conditions: Saccharomyces, 96 h, pH 6.4, 4 days, 27° C., read-out: MIC
[10] = tested on: Aspergillus niger ATCC 6275; assay: Minimal inhibitory concentration (agar); format: cell-based; conditions: ATCC6275, 96 h, pH 6.4, 4 days, 27° C.
[11] = tested on: Microsporum gypseum 704; assay: Minimal inhibitory concentration (agar); format: cell-based; conditions: Nannizzia gypsea, 704, 96 h; potato agar, pH 6.4, 4 days, 27° C.
[12] = tested on: Trichophyton interdigitale; assay: Minimal inhibitory concentration (agar); format: cell-based; conditions: Trichophyton interdigitale, 96 h; potato agar, pH 6.4, 4 days, 27° C.; read-out: MIC
[13] = tested on: Trichophyton roseum; assay: Minimal inhibitory concentration (agar); format: cell-based; conditions: pH 6.4, 4 days, 27° C.
[14] = tested on: Mycobacterium smegmatis ATCC 607; assay: Minimal inhibitory concentration (agar); format: cell-based; conditions: Mycolicibacterium smegmatis, ATCC607, 48 h; nutrient agar, pH 7.0, 2 days, 37° C.
[15] = tested on: Aspergillus fumigatus IAM 2162; assay: Minimal inhibitory concentration (agar); format: cell-based; conditions: IAM2162, 96 h, potato agar, pH 6.4, 4 days, 27° C.
Method: | P potato agar (pH 6.4, 4 days, 27° C.)

[16] = tested on: Aerobacter aerogenes IAM 1183; assay: Minimal inhibitory concentration (agar); format: cell-based; conditions: Klebsiella aerogenes, IAM1183, 48 h; nutrient agar, pH 7.0, 2 days, 37° C.
Method: as §3

[17] = tested on: Bacillus cereus T; assay: Minimal inhibitory concentration (agar); format: cell-based; conditions: 48 h, nutrient agar, pH 7.0, 2 days, 37° C.
Method: as §3

[18] = tested on: Corynebacterium paurometabolum; assay: Minimal inhibitory concentration (agar); format: cell-based; conditions: Tsukamurella paurometabola, 48 h; nutrient agar, pH 7.0, 2 days, 37° C.
Method: as §3

[19] = tested on: Proteus mirabilis; assay: Minimal inhibitory concentration (agar); format: cell-based; conditions: 48 h, nutrient agar, pH 7.0, 2 days, 37° C.
Method: as §3

[20] = tested on: Proteus vulgaris IFO 3167; assay: Minimal inhibitory concentration (agar); format: cell-based; conditions: IFO3167, 48 h, nutrient agar, pH 7.0, 2 days, 37° C.
Method: as §3

[21] = tested on: Pseudomonas aeruginosa P-3; assay: Minimal inhibitory concentration (agar); format: cell-based; conditions: P3, 48 h, nutrient agar, pH 7.0, 2 days, 37° C.
Method: as §3

[22] = tested on: Shigella sonnei E 33; assay: Minimal inhibitory concentration (agar); format: cell-based; conditions: E33, 48 h, nutrient agar, pH 7.0, 2 days, 37° C.
Method: as §3

[23] = tested on: Staphylococcus aureus FS 1227 (PC-R); assay: Minimal inhibitory concentration (agar); format: cell-based; conditions: 48 h, nutrient agar, pH 7.0, 2 days, 37° C., penicillin resistant strain
Method: as §3

[24] = tested on: Staphylococcus aureus KB 61 (R-TC, EM); assay: Minimal inhibitory concentration (agar); format: cell-based; conditions: 48 h, nutrient agar, pH 7.0, 2 days, 37° C., tetracyclin, erythromycin resistant strain, read-out: MIC
Method: as §3

[25] = tested on: Staphylococcus aureus KB 64 (R-TC, EM); assay: Minimal inhibitory concentration (agar); format: cell-based; conditions: 48 h, nutrient agar, pH 7.0, 2 days, 37° C., tetracyclin, erythromycin resistant strain, read-out: MIC
Method: as §3

[26] = tested on: Mycoplasma gallisepticum KP-13; assay: Antimycoplasma activity, inhibition zone; format: cell-based; conditions: Eiken PPLO agar, pH 7.8, 8 days, 37° C.
Method: E Eiken PPLO agar (pH 7.8, 8 days, 37° C.)
(§7) Nanaomycin A and derivatives thereof according to the present invention are assayed in a similar manner to that designated as the paper disc method by Itoh, et al [J. of Antibiotics, 24, 855-859 (1971)], for example, as follows: […]

[27] = tested on: Acholeplasma laidlawii (A); assay: Antimycoplasma activity, inhibition zone; format: cell-based; conditions: Hokken PPLO agar, pH 7.8, 8 days, 37° C.
Method: H Hokken PPLO agar (pH 7.8, 8 days, 37° C.)
as §7

[28] = tested on: Gram-positive bacteria; assay: Antibacterial activity (in words); format: cell-based
[29] = tested on: mycoplasmas; assay: Antimycoplasma activity (in words); format: cell-based
[30] = Solubility; format: physicochemical
[31] = in vivo; conditions: mouse, ip
[32] = Bacillus subtilis, PCI219, 48 h, pH 7, nutrient agar, read-out: MIC
[33] = Micrococcus luteus, PCI1001, 48 h, pH 7, nutrient agar, read-out: MIC
[34] = Candida albicans, 96 h, pH 6.4, potato agar, read-out: MIC
[35] = Trichophyton rubrum, 96 h, pH 6.4, potato agar, read-out: MIC
[36] = Trichophyton, 96 h, pH 6.4, potato agar, read-out: MIC

## CC(=O)Oc1cccc2c1C(=O)C1=C(CC(CC(=O)O)OC1C)C2=O (centres unmarked) [Acetylnanaomycin A, acetylnanaomycin A]
[1]
  MIC: 1.6 µg/mL (≈ 4.65 µM)
[2]; [32]
  MIC: 3.1 µg/mL (≈ 9 µM)
[3]; [33]
  MIC: 1.6 µg/mL (≈ 4.65 µM)
[4]
  MIC: 0.8 µg/mL (≈ 2.32 µM)
[5]; nutrient agar
  MIC: 50 µg/mL (≈ 145 µM)
[6]; [34]
  MIC: 25 µg/mL (≈ 72.6 µM)
[7]; [35]
  MIC: < 0.2 µg/mL
[8]; [36]
  MIC: < 0.2 µg/mL
[9]; pH 6.4, potato agar
  MIC: 12.5 µg/mL (≈ 36.3 µM)
[10]; potato agar, read-out: MIC
  MIC: 25 µg/mL (≈ 72.6 µM)
[11]
  MIC: 0.4 µg/mL (≈ 1.16 µM)
[12]
  MIC: 1.6 µg/mL (≈ 4.65 µM)
[13]; [36]
  MIC: 0.4 µg/mL (≈ 1.16 µM)
[14]
  MIC: 50 µg/mL (≈ 145 µM)
[15]
  MIC: 6.3 µg/mL (≈ 18.3 µM)
[16]
  MIC: > 100 µg/mL
[17]
  MIC: 25 µg/mL (≈ 72.6 µM)
[18]
  MIC: 6.3 µg/mL (≈ 18.3 µM)
[19]
  MIC: > 100 µg/mL
[20]
  MIC: 50 µg/mL (≈ 145 µM)
[21]
  MIC: > 100 µg/mL
[22]
  MIC: 100 µg/mL (≈ 290 µM)
[23]
  MIC: 0.8 µg/mL (≈ 2.32 µM)
[24]
  MIC: 0.8 µg/mL (≈ 2.32 µM)
[25]
  MIC: 0.4 µg/mL (≈ 1.16 µM)
[26]
  Inhibition Zone: 28.5 mm
[27]
  Inhibition Zone: none
[28]
  activity against Gram-positive bacteria: a strong activity against Gram-positive bacteria than nanaomycin A
[29]
  activity against mycoplasma(s): as strong activity against fungi and mycoplasmas as nanaomycin A
[30]
  Solubility in ether: Soluble
  Solubility in methanol, ethanol, ethylacetate, chloroform and acetone: Soluble
  Solubility in n-hexane and petroleum ether: Insoluble
  Solubility in water: Insoluble
[31]
  LD50: 38.5 mg/kg

## CC1OC(CC(=O)O)CC2=C1C(=O)c1c(O)cccc1C2=O (centres unmarked) [Nanaomycin A, nanaomycin A]
[1]
  MIC: 3.9 µg/mL (≈ 12.9 µM)
[2]; [32]
  MIC: 6.3 µg/mL (≈ 20.8 µM)
[2]; nutrient agar
  MIC: 7.8 µg/mL (≈ 25.8 µM)
[3]; [33]
  MIC: 1.6 µg/mL (≈ 5.29 µM)
[3]; nutrient agar
  MIC: 2.0 µg/mL (≈ 6.62 µM)
[4]
  MIC: 2 µg/mL (≈ 6.62 µM)
[5]; nutrient agar
  MIC: 100 µg/mL (≈ 331 µM)
[5]; pH 7, nutrient agar
  MIC: 62.5 µg/mL (≈ 207 µM)
[6]; [34]
  MIC: 50 µg/mL (≈ 165 µM)
[6]; potato agar
  MIC: 31.2 µg/mL (≈ 103 µM)
[7]; [35]
  MIC: < 0.2 µg/mL
[7]; potato agar
  MIC: < 0.1 µg/mL
[8]; [36]
  MIC: < 0.2 µg/mL
[8]; potato agar
  MIC: 0.2 µg/mL (≈ 0.662 µM)
[9]; pH 6.4, potato agar
  MIC: 12.5 µg/mL (≈ 41.4 µM)
[9]; potato agar
  MIC: 31.2 µg/mL (≈ 103 µM)
[10]; pH 6.4, potato agar
  MIC: 62.5 µg/mL (≈ 207 µM)
[10]; potato agar, read-out: MIC
  MIC: 25 µg/mL (≈ 82.7 µM)
[11]
  MIC: 0.8 µg/mL (≈ 2.65 µM)
[12]
  MIC: 1.6 µg/mL (≈ 5.29 µM)
[13]; [36]
  MIC: < 0.2 µg/mL
[13]; potato agar
  MIC: 0.4 µg/mL (≈ 1.32 µM)
[14]
  MIC: 100 µg/mL (≈ 331 µM)
[15]
  MIC: 6.3 µg/mL (≈ 20.8 µM)
[16]
  MIC: > 100 µg/mL
[17]
  MIC: 12.5 µg/mL (≈ 41.4 µM)
[18]
  MIC: 12.5 µg/mL (≈ 41.4 µM)
[19]
  MIC: > 100 µg/mL
[20]
  MIC: 50 µg/mL (≈ 165 µM)
[21]
  MIC: > 100 µg/mL
[22]
  MIC: 100 µg/mL (≈ 331 µM)
[23]
  MIC: 1.6 µg/mL (≈ 5.29 µM)
[24]
  MIC: 1.6 µg/mL (≈ 5.29 µM)
[25]
  MIC: 0.8 µg/mL (≈ 2.65 µM)
[26]
  Inhibition Zone: 28.7 mm
[27]
  Inhibition Zone: none
[28]
  activity against Gram-positive bacteria: strong activity
[29]
  activity against mycoplasma(s): high activity
[30]
  Solubility in ether: Easily soluble
  Solubility in methanol, ethanol, ethylacetate, chloroform and acetone: Easily soluble
  Solubility in n-hexane and petroleum ether: Insoluble
  Solubility in water: Insoluble
[31]
  LD50: 28.2 mg/kg

Source: patent US4324728A, “Compound nanaomycin A and derivatives thereof and a process for producing the same” (The Kitasato Institute, priority 1976, dated 1982)
